Values joined by “and” are separate entries in the source; they are usually repeats but may differ in a detail not shown here. Identical values can stand only once.
What was measured:
[1] = system: H1650 (lung adenocarcinoma cells), AR-negative; test: Cell monolayer growth assay (MTT); type: cell-based
Method: FIG. 12D is a graph showing the effect of KCI807 on in vitro growth of AR-negative cell line H1650 cells measured by the MTT assay. All values were plotted relative to the Day zero value. Cells were trypsinized and 3000-4000 cells/well were seeded in 96-well plates coated with poly-D-lysine. The cells were seeded in phenol red-free medium supplemented with 10% FBS, 100 units/ml penicillin, 100 μg/ml streptomycin, 2 mM L-glutamine mixture and sodium pyruvate (1 mM) for LNCaP cells and phenol red-free medium supplemented with 10% FBS, 100 units/ml penicillin, 100 μg/ml streptomycin and 2 mM L-glutamine mixture for VCaP, 22Rv1, DU145, HeLa, HEK293 and H1650 cells. The cells were grown at 37° C. in 5% CO2. Twenty four hours after seeding in the 96-well plates, the cells were treated with the indicated concentration of KCI807 or DMSO (vehicle). The cells were re-treated on Day 3 by removing half the volume of medium and replacing it with fresh treated medium. Cell viability was determined using the MTT assay from day zero until day five. MTT (10 μL, 5 mg/mL) was added to each well and incubated for 2h at 37° C. The formazan crystal sediments were dissolved in 100 μL of DMSO, and the absorbance at 570 nm was measured using the BioTek Synergy 2 Microplate Reader (BioTek, Winooski, Vt.). The assay was conducted in sextuplicate wells and values were normalized to day zero.

[2] = Metabolism in pooled human liver microsomes (HLM) with or without NADPH; type: in vitro ADME; details: HLM 0.05 mg/ml, 30 minutes, 37° C.
Method: BD UltraPool human liver microsomes (HLM) 150 and the NAPDH regenerating system solution A and B were obtained from Corning Inc. Pooled HLM were used to determine percentage of metabolism of 5,3′-Dihydroxyflavone and 5,3-Dihydroxy-4′-methylflavone. The compounds (20 μM) were co-incubated with HLM (0.05 mg/ml) in the presence or absence of NAPDH for 30 minutes in a 37° C. water bath. At the end of the microsome reaction, the reaction was quenched with 1000 μl ethyl acetate. The mixture was vortexed and centrifuged at 13,000 rpm for 15 minutes, the supernatant was then subjected to high-performance liquid chromatography with tandem mass spectrometry ([…]) analysis.

BT474 cells = test: Breast cancer cell growth, MTT assay; type: cell-based
Method: (§1) Twenty four hours after plating the cells, they were treated with the indicated concentrations of the compound.

T47D cells = test: Breast cancer cell growth, MTT assay; type: cell-based
Method: as §1

[3] = mouse, in vivo
[4] = system: ARE-dependent promoter activation by AR; test: Counter screening assay: ARE-luciferase reporter in recombinant HeLa cells expressing AR; type: cell-based, human; details: testosterone-treated recombinant HeLa cells
Source text: FIG. 6B is a schematic diagram of the reporter system for the counter screening assay. Recombinant HeLa cells used in this assay are identical to the primary screening cells except for the absence of Gal4-ELK1 and substitution of the Gal4 elements in the promoter with a canonical ARE. In this case, testosterone causes cytosolic AR to translocate to the nucleus and bind to the ARE in the promoter resulting in activation of the luciferase reporter.
The cells generated for counter screening, are HeLa cells stably transduced with a lentiviral plasmid construct containing a minimal promoter-luciferase reporter and an upstream androgen response element (ARE) sequence. These HeLa cells were also transduced with a lentiviral expression plasmid encoding the full-length AR. These lentiviral constructs were made as follows. Custom synthesized PCR primers were used to amplify and clone the ARE sequence from a pG5luc plasmid construct containing an ARE sequence element into the pGreenFire1 ™-mCMV-EF1-Neo (Plasmid) at SpeI (upstream) and BamHI (downstream) sites. pG5luc Vector is well known and the complete sequence has NCBI accession #AF264724. The ARE containing pG5luc plasmid is described in detail in Patki et al., 2013, J Biol Chem, 288:11047-11065. The lentiviral vector expressing ARE-luciferase reporter was then packaged in lentivirus and parental HeLa cells were infected as described below under the heading “Lentivirus-mediated-Transduction.” After 72h of infection, 400 ug/mL of Geneticin was added to the culture medium to select for the transduced cells. These cells were then infected with the lentivirus containing the full length AR expression plasmid described above. After 72h of infection, 2 ug/mL of Puromycin was added to the culture medium to select for the transduced cells. Clonal cells harboring both the ARE-promoter-luciferase reporter and also stably expressing AR were then isolated using cloning cylinders as described above. The selected clones were further expanded and then tested for luciferase induction by testosterone. The clone that gave the greatest luciferase signal to noise ratio in response to testosterone treatment was then chosen for use in the counter screening assay for high throughput small molecule screening. All of the plasmid constructs generated above were sequenced to verify DNA sequences before, the constructs were used.
For high throughput screening, recombinant primary screening cells were first depleted of hormone by growing them for 24h in medium in which the serum used was heat-inactivated and charcoal-stripped. The cells were then plated in 384-well white flat bottom plates (5,000 cells/well) (Corning Product #3570) using a Multidrop (Thermo Fisher Scientific, Waltham, Mass.). […]

| Compound | growth of H1650 cells [1] | compound concentration after HLM incubation, Control (absence of NADPH), replicate [2] | compound concentration after HLM incubation, NADPH treated, replicate [2] | mean compound concentration, Control (absence of NADPH) [2] [nM] | mean compound concentration, NADPH treated [2] [nM] | percentage metabolized (%) ([2]; NADPH) | growth of BT474 cells (BT474 cells) | growth of T47D cells (T47D cells) | symptoms during the study, 22Rv1 xenograft [3] | weight loss (in words), 22Rv1 xenograft [3] | inhibition of ARE-dependent promoter activation by AR (in words) [4] |
| --- | --- | --- | --- | --- | --- | --- | --- | --- | --- | --- | --- |
| O=c1cc(-c2cccc(O)c2)oc2cccc(O)c12 [KCI807, 5,3′-dihydroxyflavone] | did not appreciably affect the growth | 973 nM and 981 nM and 1006 nM | 796 nM and 725 nM and 863 nM | 986 | 795 | 19.4 | growth inhibitory | growth inhibitory | asymptomatic | did not show appreciable weight loss |  |
| CNC(=O)c1ccc(N2C(=S)N(c3ccc(C#N)c(C(F)(F)F)c3)C(=O)C2(C)C)cc1F [enzalutamide] |  |  |  |  |  |  |  |  |  |  | completely suppressed the signal |

— US11185527B2, “Methods and compositions relating to steroid hormone receptor-dependent cancers” (Wayne State University, priority 2017, dated 2021)
